Legend:
CT26 colon carcinoma = experiment: Daily vs single bolus intratumoral administration in murine CT26 colon carcinoma model; format: in vivo, mouse; conditions: daily intratumoral 95 μg days 7-11 compared to single bolus 475 μg day 7; anti-PD1 mAb 100 μg i.p. day 4 and 9
Experimental: Daily intratumoral administration compared to single intratumoral bolus doses was further investigated using gemcitabine in a murine CT26 colon carcinoma model (see FIG. 7A-7B). On day 0, mice were inoculated by subcutaneous administration of CT26 cells. On day 4 and day 9, mice were administered a dose of an anti-PD1 mAb (100 μg per dose) by intraperitoneal injection. Data was pooled from two experiments, with 10 mice per group.
CT26 mice in the ‘single bolus dose’ group received a single bolus dose of gemcitabine (475 μg) (intratumoral) at day 7, and four doses of saline (intratumoral) for the next four days (FIG. 7A). CT26 mice in the ‘daily dose’ group received daily doses of gemcitabine (95 μg) (intratumoral) over days 7-11 (5 total doses) (FIG. 7B). Each daily doses was a fractional dose equivalent to approximately ⅕ of the single bolus dose.

[1] = test system: B16-F10 mouse melanoma tumor; experiment: Daily vs single bolus intratumoral administration in B16-F10 mouse melanoma tumor model; format: in vivo; conditions: anti-PD1 mAb 100 ug i.p. Day 4 and 9
Description: Mouse melanoma cells (B16-F10) are to be injected into the flank (right side) of mice (C57Bl/6) and a tumor is to be allowed to form. The agent will be administered intratumorally or peritumorally (i.e., intradermally or subcutaneously) either as: • 1. a single bolus, • 2. a series of fractional injections where the total dose given over the time frame is equivalent to the single bolus. These injections may be given daily or every other day. • 3. a silk microneedle patch formulated with the one or more therapeutic agents.
Tumor growth will be measured two to three times weekly. Animals will be euthanized when humane endpoints have been reached. These endpoints include weight loss >15%, body condition score <1, tumor volume >1 cm^3, tumor length (defined as the longest dimension) >1.5 cm, or tumor ulceration/necrosis. These humane endpoints apply to all in vivo experiments using the melanoma model.
According to the methods outlined above, daily intratumoral administration was compared to single intratumoral bolus doses, with IL-2 or gemcitabine, using a B16-F10 mouse melanoma tumor model. For this study, two cycles of treatment were performed, including a bolus administration on Day 7 and on Day 21, and daily administration on Days 7-11 and Days 21-25. […] On Day 0, mice were inoculated by subcutaneous administration of B16-F10 cells. […]

## Nc1ccn([C@@H]2O[C@H](CO)[C@@H](O)C2(F)F)c(=O)n1 [gemcitabine]
CT26 colon carcinoma
  overall survivability (Kaplan-Meier survival curve): greater than the bolus dose group
  tumor burden (tumor volume over time): lower tumor burden
[1]; daily intratumoral doses (Days 7-11 and 21-25) compared to single bolus doses (Day 7 and 21)
  survival (Kaplan-Meier curve): greater survival
[1]; daily intratumoral doses (Days 7-11 and 21-25, each 1/5 of bolus) compared to single bolus doses (Day 7 and 21)
  tumor burden, as determined by tumor volume over time: lower tumor burden

Reference: patent US20220339416A1, “SILK FIBROIN-BASED MICRONEEDLES AND USES THEREOF” (VAXESS TECHNOLOGIES, INC., priority 2019, published 2022)
